Entries after “also recorded” stand apart in the source; their conditions may differ.
Key:
[1] = test system: acetylation of histone H3 lysine 9 in the p16 genomic region; assay: Genomic region-specific acetylation analysis (ChIP, anti-histone H3K9 acetyl antibody), p16 genomic region; type: cell-based, human; details: HeLa cells, 150 nM, 7 days; FIG. 10
Description: In a 10% fetal bovine serum-containing DMEM medium prepared to contain the synthesized compound (SAHA+p16 PIP or SAHA+non-targeting PIP) or SAHA at a final concentration of 150 nM, HeLa cells were cultured at 37° C. in the presence of 5% CO2 for 7 days. After culture, 5×10^6 to 1×10^7 confluent cells were harvested in 100 mm diameter cell culture dishes (Corning 430167) and then subjected to chromatin immunoprecipitation assay with a MILIPORE 17-295 Chromatin Immunoprecipitation (ChIP) assay kit.
The detailed procedures used are as follows. To the harvested cells cultured for 7 days, formalin was added at a final concentration of 1% and incubated at 37° C. for 10 minutes to fix the cells, whereby proteins and DNAs were crosslinked within the cells. Then, glycine was added at a final concentration of 0.25 M and the supernatant was removed, followed by washing the cell layer. Then, the cell layer was treated with 220 μl lysis buffer and the cell lysate was collected with a scraper. […] Real-time RT-PCR.” More specifically, the purified DNA was quantitatively analyzed with SYBR premix EX Taq (TAKARA BIO, Shiga, Japan) in a Thermal Cycler Dice Real-time System TP-800 (TAKARA BIO, Shiga, Japan). […]

[2] = test system: HeLa (human uterine cervical cancer cell line); assay: Cell proliferation assay (WST-8) on HeLa cells; type: cell-based; details: for suppression of HeLa cell proliferation: 72 hours, various concentrations
Description: Next, the synthesized compounds were verified by WST-8 assay for their ability to suppress cancer cell proliferation.
Cell lines of HeLa (human uterine cervical cancer cell line), LOVO, RKO and SW480 (each of which was a human large bowel cancer cell line) were each cultured at 37° C. under 5% carbon dioxide conditions using Dulbecco's modified Eagle's medium (DMEM, Nacalai Tesque, Inc., Japan) supplemented with 10% fetal bovine serum (FBS: JRH bioscience, USA), antibiotics (50 U/ml penicillin and 50 μg/ml streptomycin) and 1 mM sodium pyruvate. Single-layered cells grown to 80-90% confluency on 10 cm cell culture dishes were washed with D-PBS(−) (Nacalai Tesque, Inc., Japan) and then released from the dishes by being treated with a phenol red-containing 2.5 g/L-Trypsine/1 mmol/L EDTA solution (Nacalai Tesque, Inc., Japan). The released cells were adjusted and maintained in fresh medium.
Each cell line seeded at 3×10^3 cells/well in a MICROTEST tissue culture plate (96 well, FALCON) was cultured at 37° C. under 5% carbon dioxide conditions for 24 hours, and then cultured in the presence of various concentrations of PI polyamide for an additional 72 hours. After completion of the culture, 10 μl of viable cell counting reagent SF (Nacalai Tesque, Inc., Japan) was added to each well and the absorbance at 450 nm was measured by ARVO EX (PerkinElmer). During the period from reagent addition until assay, incubation was continued at 37° C. in the presence of 5% CO2 until the absorbance reached about 1.2 to 2.0 in the control sample where only 50% DMSO was added to the cells.

[3] = test system: p16 gene expression (p16 RNA); assay: Real-time RT-PCR of p16 gene expression in HeLa cells; type: cell-based, human; details: 48 hours, even at 10 nM, GAPDH internal standard, FIG. 6
Description: To verify the effect on p16 gene expression, real-time RT-PCR was performed. HeLa cells seeded at 1.5×10^4 cells per well in 24-well plates were cultured for 48 hours in the presence of various concentrations of the polyamides, and RNA was then collected by ISOGEN (Nippon Gene Co., Ltd., Tokyo, Japan). The procedures used followed the manufacturer's instructions. The isolated total RNA was measured for its concentration with Nanodrop (Nanoprop, USA) and used for cDNA synthesis with a Primescript RT reagent kit (TAKARA BIO, Shiga, Japan). The prepared cDNA was confirmed for the expression level of p16 RNA in a Thermal Cycler Dice Real-time System TP-800 (TAKARA BIO, Shiga, Japan) with SYBR premix EX Tag (TAKARA BIO, Shiga, Japan). In this case, the following primers were used in PCR reaction for p16 amplification.
Likewise, for amplification of human endogenous glyceraldehyde-3-phosphate dehydrogenase (GAPDH) used as an internal standard, the following primers were used in PCR reaction.

Q: For `CN(C)CCCNC(=O)CCNC(=O)c1cc(NC(=O)c2nc(NC(=O)c3nc(NC(=O)CCNC(=O)c4cc(NC(=O)c5nc(NC(=O)CCCNC(=O)c6cc(NC(=O)c7nc(NC(=O)CCNC(=O)c8cc(NC(=O)c9cc(NC(=O)c%10nc(NC(=O)CCNC(=O)CCNC(=O)c%11ccc(NC(=O)CCCCCCC(=O)NO)cc%11)cn%10C)cn9C)cn8C)cn7C)cn6C)cn5C)cn4C)cn3C)cn2C)cn1C` [SAHA+p16 PIP, SAHA-ββImPyPyβImPyγImPyβImImPyβDp], which “acetylation of histone H3 lysine 9 in the p16 genomic region” value [1] is on record?
A: enhanced acetylation

Q: And the “enhancement of histone H3 lysine 9 acetylation in the p16 genomic region compared to SAHA alone or SAHA+non-targeting PIP” value [1]?
A: about 2 fold

Q: What about the “suppression of HeLa cell proliferation” value ([2]; WST-8, FIG. 3, FIG. 4) of the same molecule?
A: high antitumor effect

Q: And the “suppression of HeLa cell proliferation” value ([2]; WST-8, FIG. 3, FIG. 4, listed as p16 PIP attached to the SAHA derivative)?
A: proliferation inhibition; also recorded: inhibit proliferation

Q: What about the “ability to suppress proliferation, compared among the 4 cancer cell lines (HeLa)” value ([2]; FIG. 4) of the same molecule?
A: high

Q: And the “expression level of p16 at the transcription level” value [3]?
A: significant increase

From patent US20110160399A1, “HISTONE MODIFICATION INHIBITOR SPECIFIC TO TARGET GENE” (NIHON UNIVERSITY, priority 2008, published 2011)
